Measured values published in US10322995B2, “Substituted cyano cycloalkyl penta-2,4-dienes, cyano cycloalkyl pent-2-en-4-ynes, cyano heterocyclyl penta-2,4-dienes and cyano heterocyclyl pent-2-en-4-ynes as active substances against abiotic plant stress” (BAYER CROPSCIENCE AKTIENGESELLSCHAFT, priority 2014, dated 2019).

How the values were obtained:
Brassica napus (BRSNS) = test: In vivo analyses Part A: drought stress, visual damage scoring, efficacy EF (BRSNS); conditions: spray application 250 g/ha, efficacy = reduction in damage intensity
Description: (§1) Seeds of monocotyledonous and dicotyledonous crop plants were sown in sandy loam in wood-fibre pots, covered with soil or sand and cultivated in a greenhouse under good growth conditions. The test plants were treated at the early leaf stage (BBCH10-BBCH13). To assure uniform water supply before commencement of stress, the potted plants were supplied with water by dam irrigation prior to substance application. The inventive compounds, formulated in the form of wettable powders (WP), were sprayed onto the green parts of the plants as an aqueous suspension at an equivalent water application rate of 600 I/ha with addition of 0.2% wetting agent (e.g. agrotin). Substance application was followed immediately by stress treatment of the plants. For this purpose, the pots were transferred in plastic inserts in order to prevent them from subsequently drying out too quickly. Drought stress was induced by gradual drying out under the following conditions: “Day”: 14 hours with illumination at 26° C. “Night”: 10 hours without illumination at 18° C. The duration of the respective stress phases was guided mainly by the condition of the stressed control plants. It was ended (by re-irrigating and transfer to a greenhouse with good growth conditions) as soon as irreversible damage was observed on the stressed control plants. The end of the stress phase was followed by an about 4-7-day recovery phase, during which the plants were once again kept under good growth conditions in a greenhouse. The duration of the recovery phase was guided mainly by when the trial plants had attained a state which enabled visual scoring of potential effects, and was therefore variable. Once this juncture was reached, the intensities of damage were scored visually in comparison to untreated, unstressed controls of the same age. The damage intensity was at first assessed in percent. […]

Zea mays (ZEAMX) = test: In vivo analyses Part A: drought stress, visual damage scoring, efficacy EF (ZEAMX); conditions: spray application 25 g/ha, efficacy = reduction in damage intensity
Description: Seeds of monocotyledonous and dicotyledonous crop plants were sown in sandy loam in wood-fibre pots, covered with soil or sand and cultivated in a greenhouse under good growth conditions. The test plants were treated at the early leaf stage (BBCH10-BBCH13). To assure uniform water supply before commencement of stress, the potted plants were supplied with water by dam irrigation prior to substance application. The inventive compounds, formulated in the form of wettable powders (WP), were sprayed onto the green parts of the plants as an aqueous suspension at an equivalent water application rate of 600 I/ha with addition of 0.2% wetting agent (e.g. agrotin). Substance application was followed immediately by stress treatment of the plants. For this purpose, the pots were transferred in plastic inserts in order to prevent them from subsequently drying out too quickly. Drought stress was induced by gradual drying out under the following conditions: “Day”: 14 hours with illumination at 26° C. “Night”: 10 hours without illumination at 18° C. The duration of the respective stress phases was guided mainly by the condition of the stressed control plants. […] Once this juncture was reached, the intensities of damage were scored visually in comparison to untreated, unstressed controls of the same age. The damage intensity was at first assessed in percent. […]

[1] = test system: Triticum aestivum (TRZAS); test: In vivo analyses Part A: drought stress, visual damage scoring, efficacy EF (TRZAS); conditions: spray application 25 g/ha, efficacy = reduction in damage intensity
Description: as §1

CCOC(=O)/C=C(/C)C#CC(O)(c1ccccc1)C1(C#N)CC1 (stereo not drawn) [I.1-236, Ethyl (2Z)-6-(1-cyanocyclopropyl)-6-hydroxy-3-methyl-6-phenylhex-2-en-4-ynoate]
>5%: EF [%] (BRSNS) (Brassica napus (BRSNS)) | EF [%] (ZEAMX) (Zea mays (ZEAMX)) | EF [%] (TRZAS) [1]
